Values of other authors as cited in patent US20150079197A1, “MEDICINE COMPRISING COMBINATION OF GENERAL ANESTHETIC AND HYDROGEN” (MARUISHI PHARMACEUTICAL CO., LTD., priority 2012, published 2015).

How the values were obtained:
degenerated neurons = conditions: neonatal rats, Non Patent Literature 30

Structure (SMILES)	increase in the apoptosis level in the cortex (developing brains; cortex, as compared with the control) [fold]	increase in the apoptosis level in the hippocampus (developing brains; hippocampus) [fold]	neurodegeneration (degenerated neurons)	neurodegeneration (developing brains; alone)
FC(F)OC(Cl)C(F)(F)F (stereo not shown) [isoflurane]	4	4	dose-dependent neurodegeneration	–
[N-]=[N+]=O [nitrous oxide]	–	–	–	no neurodegeneration
